Holding throughout (test): NCI tumour cell line growth inhibition, 48 h
Experiment [1] deals with A498 renal.
For experiment [2], the system named is ACHN renal.
For experiment [3], the system named is BT-549 breast.
Experiment [4] relates to HCT-116 colon.
In experiment [5] the test system is HL-60(TB) leukemia.
Experiment [6] relates to KM12 colon.
The subject of experiment [7] is MCF7 breast.
The test system of experiment [8] is MDA-N.
The subject of experiment [9] is OVCAR-3 ovarian.
The subject of experiment [10] is SF-268 CNS.
Experiment [11] has as its system SF-539 CNS.
The test system of experiment [12] is SK-MEL-2 melanoma.
Experiment [13] deals with SR leukemia.
The subject of experiment [14] is TK-10 renal.
The subject of experiment [15] is UACC-62 melanoma.
The subject of experiment [16] is NCI-H226 lung.
Experiment [17] relates to NCI-H23 lung.
Experiment [18] relates to OVCAR-4 ovarian.
For experiment [19], the system named is NCI-H522 lung.

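Growth conditions: 96-well plates. Treatment: test compound, 48 hours, 5 concentrations. Analysis: linear interpolation between bracketing concentrations; unreached endpoints set to highest concentration. The concentration for full growth arrest is given as TGI.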

We go through 12 compounds from PubChem BioAssay (NCI).

Turning to `NC1CC(=O)c2c(Br)csc21` (centres undefined), the TGI was above 100 µM in [1]; above 100 µM in experiment [2]; 97.5 µM in [3]; above 100 µM in [4]; 81.9 µM in experiment [5]; above 100 µM in [6]. The TGI in experiment [7], in experiment [8], in experiment [9], in [10], in experiment [11] and in [12] was above 100 µM in each case. The TGI in [13] was above 100 µM; in experiment [14] it was 96.7 µM; in experiment [15], 58.7 µM.

As for `N#Cc1c(-c2ccc(Cl)cc2)c2c([nH]c1=O)-c1ccccc1SC2`, the TGI in experiment [1] is above 100 µM; in experiment [3] it was above 100 µM; in experiment [4], above 100 µM; in experiment [5], 56.7 µM; in experiment [6] it was above 100 µM; in experiment [7] it was above 100 µM. Moreover, the TGI was above 100 µM in [8]; above 100 µM in experiment [16]; above 100 µM in [17]; 92.7 µM in experiment [9]; above 100 µM in [18]; above 100 µM in experiment [10]. Moreover, the TGI was 68 µM in experiment [11]; above 100 µM in [12]; above 100 µM in [13]; 52.9 µM in [14]; above 100 µM in experiment [15].

For the compound `OC1[C@@H]2[C@@H](O)[C@H](O)[C@@H](O)N2C[C@@H]1O` (some centres undefined), the TGI in experiment [1], in experiment [2], in experiment [3], in experiment [4], in [6] and in experiment [7] was above 100 µM throughout. Moreover, the TGI in [8], in [16], in experiment [17], in [19], in [9] and in experiment [18] was above 100 µM throughout. Further, the TGI in experiment [10] was above 100 µM; in experiment [11], above 100 µM; in [12] it was above 100 µM; in experiment [13], above 43.6 µM; in experiment [14], above 100 µM; in [15], above 100 µM.

With `CCCCCCCCCC1(N=[N+]=[N-])C(=O)c2ccccc2N(C)C1=O` (centres undefined), the TGI was 76.8 µM in experiment [1]; above 100 µM in experiment [2]; 74.6 µM in experiment [3]; 75.2 µM in experiment [4]; above 100 µM in experiment [5]; above 100 µM in experiment [6]. The TGI in [7] is above 100 µM; in experiment [8], 79.1 µM; in [17], 97.4 µM; in [9] it was 56.4 µM; in experiment [18], above 100 µM; in experiment [10], above 100 µM. The TGI in [11] was above 100 µM; in experiment [12] it was 69 µM; in [13], above 100 µM; in experiment [14] it was above 100 µM; in experiment [15], 80.5 µM.

`C1C2CC3CC1CC(Nc1nc(NC45CC6CC(CC(C6)C4)C5)nc(NC45CC6CC(CC(C6)C4)C5)n1)(C2)C3`: the TGI in [1] is above 100 µM; in experiment [2] it was above 100 µM; in experiment [3], above 100 µM; in experiment [4], above 100 µM; in experiment [5], above 100 µM; in experiment [6], above 51.5 µM. The TGI in experiment [7], in [8], in [16], in [17], in [9] and in experiment [18] was above 100 µM each time. The TGI in [10], in experiment [11], in [12], in experiment [13], in [14] and in experiment [15] was above 100 µM each time.

Turning to `CC1(c2cccs2)CC(c2cccs2)=C(C#N)C(=C(C#N)C#N)N1` (centres undefined), the TGI was found to be 35.8 µM in experiment [1]; 32.1 µM in experiment [2]; 57.5 µM in experiment [3]; 31.6 µM in [4]; 33.1 µM in [5]; 32.3 µM in [6]. In addition, the TGI in [7] is 39.1 µM; in [8] it was 31.1 µM; in [16], 90 µM; in [17], 38.8 µM; in [9], 32.1 µM; in experiment [18], 32.3 µM. The TGI in experiment [10] is 35.9 µM; in experiment [11], 70 µM; in experiment [12], 37.4 µM; in experiment [13], above 100 µM; in [14], 36.5 µM; in [15] it was 29.6 µM.

On to `COc1cc(/C=C2\C[C@H]3[C@@H]4CCc5cc(O)ccc5[C@H]4CC[C@]3(C)C2=O)cc(OC)c1OC`, for which the TGI is 87.5 µM in experiment [1]; 38.7 µM in experiment [2]; 42.6 µM in experiment [3]; 28.6 µM in experiment [4]; 38.1 µM in [6]; above 100 µM in experiment [7]. The TGI came out at 62.3 µM in experiment [8]; 32 µM in experiment [16]; 28.5 µM in experiment [17]; 3.95 µM in [19]; 26.9 µM in experiment [9]; 72.8 µM in experiment [18]. Moreover, the TGI came to 24 µM in experiment [10]; 90.5 µM in experiment [11]; 31.9 µM in [12]; 10.7 µM in experiment [13]; 25.1 µM in experiment [14]; 52.2 µM in experiment [15].

For the compound `OCCCCCCCCCCCOc1ccc(C2OCC3(CO2)COC(c2ccc(OCCCCCCCCCCCO)cc2)OC3)cc1` (centres undefined), the TGI in experiment [1], in [2], in experiment [3], in [4], in experiment [6] and in [7] was above 50 µM each time. Besides, the TGI in experiment [8], in [16], in [17], in experiment [9], in experiment [18] and in experiment [10] was above 50 µM throughout. Also, the TGI in experiment [11], in [12], in experiment [13], in experiment [14] and in [15] was above 50 µM throughout.

Regarding `Oc1c(C2=NNC(c3ccc(Cl)cc3Cl)C2)ccc2ccccc12` (centres undefined), the TGI in experiment [1], in experiment [2], in experiment [3], in experiment [4], in [6] and in experiment [7] was above 100 µM each time. Besides, the TGI in experiment [8] is 55.5 µM; in [16], above 100 µM; in experiment [17] it was above 100 µM; in experiment [19], above 100 µM; in experiment [9] it was above 100 µM; in experiment [18] it was above 100 µM. For the same compound, the TGI was above 100 µM in [10]; above 100 µM in [11]; above 100 µM in experiment [12]; 35 µM in experiment [13]; above 100 µM in experiment [14]; above 100 µM in [15].

Regarding `CC1(C)CC(=O)c2[nH]c3ccccc3c2CC(=O)NCCc2cn1cn2`, the TGI in experiment [1], in [2], in experiment [3], in experiment [4], in [6] and in experiment [7] was above 100 µM each time. Also, the TGI in [8], in [16], in experiment [17], in [19], in [9] and in experiment [18] was above 100 µM in each case. Moreover, the TGI in experiment [10], in [11], in [12], in [13], in [14] and in [15] was above 100 µM each time.

Consider `COC(=O)c1ccc(C(=O)NC(Cc2ccc(Oc3cc(CC(NC(=O)c4ccccc4C(=O)OC)C(=O)OC)ccc3OC)cc2)C(=O)OC)cc1` (centres undefined), for which the TGI in [1], in experiment [2], in [3], in [4], in experiment [5] and in [6] was above 100 µM throughout. Besides, the TGI in [7], in experiment [8], in experiment [16], in [17], in [9] and in [18] was above 100 µM in each case. Further, the TGI in experiment [10], in experiment [11], in experiment [12], in experiment [13] and in experiment [14] was above 100 µM throughout.

Consider `NS(=O)(=O)c1ccc(N=Nc2nc3[nH]c(=O)[nH]c(=O)c3[nH]2)cc1`, for which the TGI in experiment [1], in experiment [2], in [3], in experiment [4], in experiment [6] and in [7] was above 100 µM each time. Moreover, the TGI in experiment [8], in [16], in experiment [17], in experiment [19], in [9] and in experiment [18] was above 100 µM each time. In addition, the TGI in experiment [10], in experiment [11], in experiment [12], in experiment [13], in [14] and in experiment [15] was above 100 µM in each case.
